Reference: patent US8822539B2, “Combination therapies: inhibitors of GABA transaminase and NKCC1” (Children's Medical Center Corporation, priority 2010, dated 2014)

Experiments:
Sprague Dawley rat pups = assay: rodent model of VGB-induced IME (white matter injury and vacuolation); assay type: in vivo
Description: Model of VGB-induced IME. We adhere to the same protocol used by Ovation in recent studies. Sprague Dawley rat pups are treated from postnatal day 4-25 with VBG (50 mg/kg) or vehicle. This is administered by oral gavage to rats starting on PND 4. The single dose of 50 mg/kg was selected on the basis of the previous study in which it produced vacuolar lesions (24, 31). Rats are sacrificed at P25 and perfused with 4% paraformaldehyde. Brains are cryoprotected in sucrose for frozen sectioning.
Treatment groups. We use an n of 15 animals per group. Vehicle only, VGB alone, or VGB and bumetanide. The doses are daily.
Histological and immunocytochemical methods. Using our published protocols for quantification of white matter myelination (29) we perform MBP staining. 16 μm coronal cryostat sections (Leica CM3050 S) were collected on Superfrost Plus slides. […]
Data analysis. Fluorescence images are obtained on a Zeiss Axioscope, using a Spot digital camera and Advanced 4.5 software (Diagnostic Instruments). […] ImageJ software is used to quantitate MBP and O4 immunostaining as a proportion of the white matter capsule area (29). This methodology was validated with ImageJ software quantitation of total area of MBP immunostaining within each 2.4 mm2 field. […]

Sprague Dawley rats = assay: rat model of vigabatrin (VGB)-induced retinal toxicity, histopathologic analysis of retina; details: for VGB-induced retinal toxicity: 30 days
Description: We closely follow the methods of Duboc, et al (12) that recommend 30 days of treatment in juvenile rats to induce a lesion.
Model of VGB-induced toxicity. VGB is administered to young adult/juvenile Sprague Dawley rats between 6-7 weeks of age for a period of 30 days. VGB is dissolved in 0.9% NaCl at 100 mg/mL and injected intraperitoneally (i.p.) daily for 30 days at doses of 5 and 3 mg/day as described for treatment of animal epilepsy (26).
Treatment groups. We use of 15 animals per group. […] The doses are daily.
Histopathologic analysis of retina. As per established protocols eye cups are fixed overnight at 4° C. in 4% (wt/vol) paraformaldehyde in phosphate buffered saline PBS) 0.01M, pH 7.4. After cryoprotection in PBS containing successively 10, 20, and 30% sucrose at 4° C., the tissue is embedded in OCT (Labonord, Villeneuve d'Ascq, France). A preliminary analysis of general retinal morphology is performed on vertical sections (8-10 μm thickness) using hematoxylin and eosin. Additional sections are permeabilized for 5 minutes in PBS containing 0.1% Triton X-100 (Sigma, St. Louis, Mo.), rinsed, and incubated in PBS containing 1% bovine serum albumin (Eurobio, Les-Ulis, France), 0.1% Tween 20 (Sigma), and 0.1% sodium azide (Merck, Fontenay-Ss-Bois) for 2 hours at room temperature. The primary antibody is added to the solution and incubated for 2 hours at room temperature. Antibodies were anti-GFAP rabbit polyclonal antibody (1:400; DAKO), and antiactive caspase-3 rabbit polyclonal antibody (1:100; Cell Signaling Technology, Beverly, Mass.). […] Cone photoreceptors are stained with peanut agglutinin lectin coupled to Texas Red (PNA, 1:40; Sigma). […] The dye, diamidiphenyl-indole (DAPI), is added to any incubation solution. Sections are mounted with Fluorsave reagent (Calbiochem, San Diego, Calif.). PNA-stained cone inner/outer segments are counted on retinal sections in eight consecutive 300 μm-wide optical windows on each side of the optic nerve under the 40× objective. Areas with a disorganized outer nuclear layer are specifically excluded from this count. Vertical sections are stained with hematoxylin and eosin.
Tissue Preparation for Electron Microscopy. […] The tissue is rinsed in cacodylate 0.15M and postfixed in 1% osmium tetroxide (Electron MicroscopySciences) for 1 hour. After dehydration in ethanol, and propylene oxide, the tissue is embedded in epon. Semithin sections are stained with methylene blue and ultrathin sections (80 nm) contrasted with lead citrate and uranyl acetate.
Data analysis. For quantification we use the same outcome measures of retinal injury as Duboc et al and Jammoul et al (12, 25). Vertical sections along the dorsoventral axis are selected at the optic nerve. After DAPI nuclear staining, the lengths of disorganized retinal areas are measured; GFAP immunostaining is used for detection and quantification of retinal areas with reactive gliosis. The cone photoreceptor density is calculated after cone arrestin immunostaining to visualize the inner/outer segments of cone photoreceptors; areas with disorganized retinal layering were excluded.

NKCC1 = molecular target: T1, NKCC1 (Rattus norvegicus, UniProt E9PTX9); details: bumetanide 0.1 mg/kg, rats, prior work; cited from earlier work
T1 construct: host or cells: rat brain, in vivo (endogenous protein)
T1 sequence (E9PTX9 1-1203): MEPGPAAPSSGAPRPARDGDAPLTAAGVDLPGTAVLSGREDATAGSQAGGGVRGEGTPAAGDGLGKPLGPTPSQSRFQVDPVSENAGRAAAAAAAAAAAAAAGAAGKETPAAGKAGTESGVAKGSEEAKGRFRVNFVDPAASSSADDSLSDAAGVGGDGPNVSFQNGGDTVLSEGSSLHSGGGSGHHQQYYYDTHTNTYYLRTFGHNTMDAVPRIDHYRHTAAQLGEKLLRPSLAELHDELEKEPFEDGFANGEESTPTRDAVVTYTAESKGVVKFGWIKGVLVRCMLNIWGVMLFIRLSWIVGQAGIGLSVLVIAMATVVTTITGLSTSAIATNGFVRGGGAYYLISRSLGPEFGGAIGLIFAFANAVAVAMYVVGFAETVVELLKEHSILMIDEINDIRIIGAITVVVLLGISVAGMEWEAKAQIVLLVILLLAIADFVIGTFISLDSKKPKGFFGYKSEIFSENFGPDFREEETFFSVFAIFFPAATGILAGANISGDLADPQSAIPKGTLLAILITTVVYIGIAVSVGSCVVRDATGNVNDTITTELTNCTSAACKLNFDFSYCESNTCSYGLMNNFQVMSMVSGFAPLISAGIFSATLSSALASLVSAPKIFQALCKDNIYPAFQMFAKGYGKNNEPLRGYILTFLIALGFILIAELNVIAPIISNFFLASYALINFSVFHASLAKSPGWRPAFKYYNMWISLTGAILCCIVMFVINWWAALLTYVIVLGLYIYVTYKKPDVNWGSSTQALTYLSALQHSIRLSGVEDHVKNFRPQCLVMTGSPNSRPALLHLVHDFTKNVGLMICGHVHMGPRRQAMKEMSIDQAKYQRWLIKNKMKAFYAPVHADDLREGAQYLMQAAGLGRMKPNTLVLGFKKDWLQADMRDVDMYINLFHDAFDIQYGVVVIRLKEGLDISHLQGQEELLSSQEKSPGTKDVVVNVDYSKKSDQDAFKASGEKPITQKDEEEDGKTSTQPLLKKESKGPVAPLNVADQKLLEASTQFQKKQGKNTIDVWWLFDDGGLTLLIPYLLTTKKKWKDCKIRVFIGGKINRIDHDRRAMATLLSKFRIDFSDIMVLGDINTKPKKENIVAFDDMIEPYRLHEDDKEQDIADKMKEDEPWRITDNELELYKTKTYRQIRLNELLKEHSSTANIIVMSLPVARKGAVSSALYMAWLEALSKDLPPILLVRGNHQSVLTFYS

[1] = FDA not approvable action 1998; cited from earlier work
[2] = bumetanide higher dose (0.2 mg/kg)

Row | SMILES | protection against VGB-induced white matter injury / IME (Sprague Dawley rat pups; higher dose of bumetanide (0.2 mg/kg) with VGB 50 mg/kg/day) | protection against VGB-induced white matter injury / IME (Sprague Dawley rat pups; lower dose of bumetanide (0.1 mg/kg/day i.p.) with VGB 50 mg/kg/day, PND 4-25) | VGB-induced retinal toxicity (Sprague Dawley rats; bumetanide 0.2 mg/kg dose with VGB) | adverse effects of diuresis (Sprague Dawley rats; [2]) | effects on body weight or skin turgor (Sprague Dawley rats; [2]) | VGB-induced retinal toxicity (Sprague Dawley rats; lower dose of bumetanide 0.1 mg/kg i.p. daily with VGB 5 mg/day) | suppression of NKCC1 in brain (NKCC1) | vigabatrin toxicity in retina (histopathology) (Sprague Dawley rats; VGB i.p. daily for 30 days, juvenile rats) | incidence of permanent vision loss [1] [%]
1 | CCCCNc1cc(C(=O)O)cc(S(N)(=O)=O)c1Oc1ccccc1 [bumetanide, Bumetanide] | additional efficacy | shows protective efficacy | additional efficacy | no adverse effects of any modest diuresis | nor any significant effects on body weight or skin turgor | significant decrease in toxicity | effectively suppresses NKCC1 in brain |  | 
2 | C=CC(N)CCC(=O)O (stereo not drawn) [vigabatrin, gamma-vinyl-GABA] |  |  |  |  |  |  |  | photoreceptor injury/loss and vacuolization | 30
